≈ marks a conversion by molar mass, not a printed value. Where “and” joins values, the source holds several entries; their conditions need not be identical. Identical values can stand only once. Like-named read-outs stand apart in the source and are kept apart here.
What was measured:
[1] = system: pqsA promoter (PA14 PpqsA-GFPASV); assay: pqsA-GFP reporter expression; format: cell-based, Pseudomonas aeruginosa
PA14 AT/P cells = assay: AT/P cells formation assay in PA14; format: cell-based, Pseudomonas aeruginosa; conditions: Pseudomonas aeruginosa, PA14, 24 h, read-out: inhibition of AT/P cells formation
MvfR protein (MvfRC87) = biological target: T1, MvfR protein (MvfRC87) (Pseudomonas aeruginosa, UniProt Q9I4X0); format: binding; conditions: SPR
T1 construct: The MvfRC87 protein purified as in Xiao et. al., 2006; made in house
T1 sequence (Q9I4X0 87-332): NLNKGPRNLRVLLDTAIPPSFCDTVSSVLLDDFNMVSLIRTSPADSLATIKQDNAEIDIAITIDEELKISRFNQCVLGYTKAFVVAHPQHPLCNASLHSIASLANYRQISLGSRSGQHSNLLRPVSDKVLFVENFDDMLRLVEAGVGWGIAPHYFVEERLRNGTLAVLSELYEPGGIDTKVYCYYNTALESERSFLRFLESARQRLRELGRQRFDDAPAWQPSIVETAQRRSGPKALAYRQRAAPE
Experimental: The selected compounds were tested for their ability to bind to MvfR. Target validation was carried out by using surface plasmon resonance (SPR). The MvfRC87 protein purified as in Xiao et. al., 2006[33] was covalently immobilized on a CM7 Series S sensor chip using an amine coupling reagent kit (GE Healthcare) at the range level of 3000 to 5000 response units (RU). RU was analyzed by Biacore T200 evaluation software 2.0 (GE Healthcare). The relative response units (RUs) 5 seconds before the end of the association were extracted from the double-reference-corrected sensor grams at different concentrations. These responses were plotted against their respective concentrations for MvfR inhibitor alone and in the presence of native MvfR ligand PQS and compared to the calculated responses for the mixture expected for different binding sites.

[2] = Solubility in iPBS pH 7.4 by HPLC; format: physicochemical; conditions: isotonic phosphate buffer (iPBS)
Experimental: Solubility of the 10 mM compounds dissolved in DMSO was tested in the isotonic phosphate buffer (iPBS) at pH 7.4 using High-Performance Liquid Chromatography (HPLC). For the preparation of iPBS phosphate-buffered saline tab (Sigma-Aldrich 08057-12Tab-F) is dissolved in 500 mL of deionized water and the final composition of the solution contains 10 mM PBS, 2.7 mM KCl, 140 mM NaCl and 0.05% Tween. A total 10 µL of the compound from a 10 mM stock solution in DMSO was added to the vial, and 190 µL of buffer was added to each vial and mixed with shaking at room temperature for 4 h. Thereafter the samples were filtered, and 160 µL of the sample was mixed with 40 µL of DMSO for the final injection. Ibuprofen (high solubility) and Progesterone (low Solubility) were used as standard compounds. Ammonium Acetate aqueous solution (50 mM, pH 7.4) and the acetonitrile were used as mobile phases A and B, respectively. The measurement of concentration was achieved by comparing of UV absorbance of the sample solution and the known standard solution following an HPLC separation using a generic fast gradient method. The solubility of each compound is expressed by the ratio of compound amount in the sample test solution to the amount of compound in the standard solution.

[3] = system: pyocyanin production in PA14; assay: Pyocyanin production assay; conditions: Pseudomonas aeruginosa
[4] = system: 16 MDR P. aeruginosa clinical isolates; assay: Pyocyanin production in MDR clinical isolates; conditions: Pseudomonas aeruginosa, 18 h, Control about 100, replicates
Experimental: The over-day culture was grown to OD600nm 1.5., diluted again at 1:10,000 in 5 mL LB and incubated with 10 μM of the test compound or the vehicle control for 18 hours at 37 °C and 200 rpm in an incubator shaker. After 18 h, 1 mL of culture was centrifuged for 2 min at 20.000 x g. The supernatant was transferred to a new tube, 200 μL of this were loaded in a flat-bottom 96-well plate, and the pyocyanin levels were quantified by measuring at OD690nm in the infinite F200 plate reader using the Magellan software (Tecan, Switzerland). The same procedure was also followed for the pyocyanin production assessment for all the P. aeruginosa clinical isolates assessed in this study. The percent of pyocyanin was calculated compared to the PA14 culture grown in the absence of compounds.
Pyocyanin production was measured in 16 P.
aeruginosa clinical isolates 18hr post-growth in the presence or absence of 10 µM of each NAM
compound. The percent of pyocyanin production was calculated by comparing the same strain grown
in the presence of the vehicle control. b.

ΔmvfR biofilm = assay: Biofilm formation of ΔmvfR mutant (off-target); conditions: Pseudomonas aeruginosa, PA14, 24 h, read-out: Biofilm formation, ΔmvfR + compound; PA14 about 100; single replicates (Figure 4c)
Experimental: Biofilm was grown in the 96-well microtiter plate at 37 °C for 24 h containing M63 minimal media in the presence of 10 µM of the compounds or vehicle. The biofilm grown with the vehicle was considered as a control. The percentage value was calculated in comparison to the PA14 control. a–c Data represent at least n = 3, each dot on the graph represents one biological replicate. The number of biological replicates for each compound and strain is depicted in the graph. The error bars denote ±SEM.
The overnight grown starter culture was diluted 1:1000 in 5 mL LB media in a glass tube and was incubated at 37 °C and 200 rpm in an incubator shaker until the culture reached an OD600nm 3.0. The culture was then diluted at 1:100 in M63 minimal media supplemented with 0.2% glucose, 0.5% Casamino Acids, and 1 mM MgSO4. Initiation of the Biofilm formation was performed in the 96 well plates; 200 µL of diluted culture was added in the wells with (10 µM) or without compounds. The cultures were allowed to grow at 37 °C in static conditions for 24 hours. Thereafter, planktonic culture was removed from the wells, and wells were washed three times with distilled water (DW). Biofilm was stained with 0.1% crystal violet and incubated for 15 min at room temperature (RT). Access dye was removed from the wells and washed off three times with DW, and 200 µL ethanol: acetone (80:20) was added to the wells. The plate was incubated for 30 min at RT, and the OD was measured by spectrophotometry at 570 nm in the infinite F200 plate reader using the Magellan software (Tecan, Switzerland). Percent biofilm formation was calculated in comparison to PA14 culture that was grown in the absence of compounds.

[5] = system: PA14 isogenic mutant ΔmvfR AT/P cells; assay: AT/P cell formation in ΔmvfR mutant (off-target); conditions: Pseudomonas aeruginosa, PA14, 24 h, read-out: AT/P cell formation, ΔmvfR + compound; PA14 about 100; single replicates (Figure 4b)
Experimental: Cells were grown in the presence of 10 μg mL^−1 meropenem, with or without 10 µM of the compounds for 24 h. Values were normalized to cells grown for 4 h in the absence of antibiotics and compounds. The ∆mvfR cells grown with antibiotics and vehicles were considered control, and the percentage values were calculated compared to control. c Biofilm formation of mutant ∆mvfR cells with or without compound. […] The number of biological replicates for each compound and strain is depicted in the graph. The error bars denote ±SEM.
The AT/P cell formation assay was performed according to the method previously described in Starkey et al., 2014 (persister cell assay). The over-day culture was incubated at 37 °C with shaking at 200 rpm until the culture OD600nm was 3.0. The culture was then diluted at 1:100 and grown in the same conditions for 4 h. After 4 h, 200 µL were collected, and serial dilutions were plated on LB agar plates for CFU quantification (as normalizers). The remainder of the culture was treated with meropenem to a final concentration of 100 × MIC (Minimum Inhibitory Concentration; 10 mg L^−1) and compounds at a final concentration of 10 µM. After 24 h, culture aliquots were 10-fold serially diluted in LB broth and plated on LB agar for CFU quantification. The AT/P fraction was determined as the normalizers (pre-antibiotic) ratio divided by the AT/P fraction (24 h post-antibiotic)[22].

[6] = system: MvfR-regulated small molecules in PA14; assay: Production of HAQs, 2-AA, DHQ and AA in PA14 cultures (LC-MS); conditions: Figure 5a, replicates
Experimental: The HAQs HHQ, PQS, HQNO, and non-HAQs: 2-AA and DHQ produced by PA14 cells were quantified in the presence of NAMs. The overnight grown starter culture was diluted 1:100 in 5 mL LB media in a glass tube and was allowed to grow in the presence (50 µM) or absence of compound at 37 °C and 200 rpm in an incubator shaker until OD600 was 3. Bacterial cultures were subsequently mixed 1:1 (400 μL: 400 μL) with 100% methanol containing 20 ppm (20 μg mL^−1) of tetradeutero-PQS (PQS-D4) and 10 ppm of tetradeutero-HHQ (HHQ-D4) in a 1.5 mL Eppendorf tube. The mixture was vortexed for 5 seconds and spun down for 5 minutes at 12,000 x g. A 700 μL aliquot of the supernatant was removed and stored in glass vials at −20 °C until further liquid chromatography-mass spectrophotometry (LC/MS) analysis as previously described in Lepine et al., 2003[66]. LC/MC analysis was performed using a Micromass Quattro II triple quadrupole mass spectrometer (Micromass Canada, Pointe-Claire, Canada) in positive electrospray ionization mode, interfaced to an HP1100 HPLC equipped with a 4.5 × 150 mm reverse-phase C8 column.
GraphPad Prism 9.2.0 software was used to plot the IC50 curve against the percent inhibition of these small molecules’ production at each concentration.

Q: With `N#Cc1ccc(NC(=O)C(F)C(=O)Nc2ccc(Oc3ccccc3)cc2)cc1` (centres unmarked) [D88] as the compound, how does the activity at 50 µM ([1]; Pseudomonas aeruginosa, PA14, read-out: % Production pqsA-GFP) read?
A: 2%

Q: And the IC50 ([1]; Pseudomonas aeruginosa, PA14, read-out: IC50 pqsA-GFP expression, PA14, 13 concentrations)?
A: 1360 nM

Q: What about the IC50 ([1]; read-out: IC50 pqsA-GFP expression, PA14, 13 concentrations) of the same compound?
A: 1310 nM

Q: And the inhibition at 10 µM (PA14 AT/P cells)?
A: ≥ 76%

Q: What about the “Response Unit (RU)” value (MvfR protein (MvfRC87); Concentration 1.00E-05 M) of the same compound?
A: 36.6 RU

Q: And the “Response Unit (RU)” value (MvfR protein (MvfRC87); Concentration 1.00E-06 M)?
A: 18.2 RU

Q: And the “Response Unit (RU)” value (MvfR protein (MvfRC87); Concentration 1.00E-07 M)?
A: 5.5 RU

Q: What about the “Response Unit (RU)” value (MvfR protein (MvfRC87); Concentration 1.00E-08 M) of the same compound?
A: 0.4 RU

Q: What about the “Response Unit (RU)” value (MvfR protein (MvfRC87); Concentration 3.16E-06 M) of the same compound?
A: 28.1 RU

Q: And the “Response Unit (RU)” value (MvfR protein (MvfRC87); Concentration 3.16E-07 M)?
A: 10.5 RU

Q: And the “Response Unit (RU)” value (MvfR protein (MvfRC87); Concentration 3.16E-08 M)?
A: 2.3 RU

Q: And the solubility at 4 h ([2]; aqueous with cosolvent or surfactant or cyclodextrin, kinetic from dmso stock, iPBS pH 7.4, HPLC, read-out: Solubility (M) in PBS)?
A: 0.00049 M (≈ 191 µg/mL)

Q: And the solubility at 4 h ([2]; pH 7.4, HPLC, read-out: solubility)?
A: 0.00049 M (≈ 191 µg/mL)

Q: And the activity at 50 µM ([3]; PA14, 18 h, read-out: % Production Pyocyanin)?
A: 6%

Q: And the IC50 ([3]; PA14, read-out: IC50 pyocyanin production)?
A: 530 nM

Q: What about the activity at 10 µM ([4]; read-out: Pyocyanin production relative to Control, clinical isolate LGR-4325) of the same compound?
A: 17.1%

Q: What about the activity at 10 µM ([4]; read-out: Pyocyanin production relative to Control, clinical isolate LGR-4326) of the same compound?
A: 8.91%

Q: And the activity at 10 µM ([4]; read-out: Pyocyanin production relative to Control, clinical isolate LGR-4327)?
A: 8.23%

Q: What about the activity at 10 µM ([4]; read-out: Pyocyanin production relative to Control, clinical isolate LGR-4328) of the same compound?
A: 27.7%

Q: And the activity at 10 µM ([4]; read-out: Pyocyanin production relative to Control, clinical isolate LGR-4330)?
A: 33.3%

Q: What about the activity at 10 µM ([4]; read-out: Pyocyanin production relative to Control, clinical isolate LGR-4331 (first section, r117)) of the same compound?
A: 12.7%

Q: And the activity at 10 µM ([4]; read-out: Pyocyanin production relative to Control, clinical isolate LGR-4331 (second section, r140))?
A: 5.55%

Q: And the activity at 10 µM ([4]; read-out: Pyocyanin production relative to Control, clinical isolate LGR-4333)?
A: 10.5%

Q: What about the activity at 10 µM ([4]; read-out: Pyocyanin production relative to Control, clinical isolate LGR-4343) of the same compound?
A: 12.2%

Q: And the activity at 10 µM ([4]; read-out: Pyocyanin production relative to Control, clinical isolate LGR-4344)?
A: 12.7%

Q: And the activity at 10 µM ([4]; read-out: Pyocyanin production relative to Control, clinical isolate LGR-4348)?
A: 8.7%

Q: And the activity at 10 µM ([4]; read-out: Pyocyanin production relative to Control, clinical isolate LGR-4356)?
A: 10.8%

Q: What about the activity at 10 µM ([4]; read-out: Pyocyanin production relative to Control, clinical isolate LGR-4362) of the same compound?
A: 13.9%

Q: And the activity at 10 µM ([4]; read-out: Pyocyanin production relative to Control, clinical isolate LGR-4363)?
A: 17.7%

Q: What about the activity at 10 µM ([4]; read-out: Pyocyanin production relative to Control, clinical isolate LGR-4364 (first section, r326)) of the same compound?
A: 17.2%

Q: And the activity at 10 µM ([4]; read-out: Pyocyanin production relative to Control, clinical isolate LGR-4364 (second section, r349))?
A: 19.4%

Q: What about the activity at 10 µM (ΔmvfR biofilm) of the same compound?
A: 43.6%

Q: What about the activity at 10 µM [5] of the same compound?
A: 34.2%

Q: And the 2-AA ([6]; Compound 4.88e-8 M)?
A: 20.87 and 7.96 and 12.86

Q: And the DHQ ([6]; Compound 4.88e-8 M)?
A: 15.28 and 24.13 and 25.25

Q: And the HHQ ([6]; Compound 4.88e-8 M)?
A: -10.38 and -9.83 and -4.34

Q: What about the HQNO ([6]; Compound 4.88e-8 M) of the same compound?
A: 23.03 and 20.64 and 19.09

Q: What about the 2-AA ([6]; Compound 9.77e-8 M) of the same compound?
A: 21.63 and 8.61 and -0.13

Q: And the DHQ ([6]; Compound 9.77e-8 M)?
A: 23.53 and 26.23 and 29.13

Q: And the HHQ ([6]; Compound 9.77e-8 M)?
A: 0.19 and 2.23 and -9.33

Q: And the HQNO ([6]; Compound 9.77e-8 M)?
A: 18.24 and 19.63 and 16.60

Q: What about the PQS ([6]; Compound 9.77e-8 M) of the same compound?
A: 1.00 and -2.02 and -4.38

Q: And the 2-AA ([6]; Compound 1.95e-7 M)?
A: 4.17 and 23.60 and 8.88

Q: And the DHQ ([6]; Compound 1.95e-7 M)?
A: 24.27 and 28.60 and 33.04

Q: And the HHQ ([6]; Compound 1.95e-7 M)?
A: -0.13 and 9.98 and 9.62

Q: What about the HQNO ([6]; Compound 1.95e-7 M) of the same compound?
A: 22.51 and 25.08 and 21.13

Q: And the 2-AA ([6]; Compound 3.91e-7 M)?
A: 26.65 and 26.00 and 18.02

Q: And the DHQ ([6]; Compound 3.91e-7 M)?
A: 19.73 and 32.57 and 33.17

Q: And the HHQ ([6]; Compound 3.91e-7 M)?
A: 5.11 and 8.17 and 11.07

Q: What about the HQNO ([6]; Compound 3.91e-7 M) of the same compound?
A: 30.53 and 30.32 and 29.72

Q: And the PQS ([6]; Compound 3.91e-7 M)?
A: -1.07 and -0.58 and 0.13

Q: What about the 2-AA ([6]; Compound 7.81e-7 M) of the same compound?
A: 26.65 and 26.00 and 18.02

Q: And the DHQ ([6]; Compound 7.81e-7 M)?
A: 19.73 and 32.57 and 33.17

Q: What about the HHQ ([6]; Compound 7.81e-7 M) of the same compound?
A: 5.11 and 8.17 and 11.07

Q: What about the HQNO ([6]; Compound 7.81e-7 M) of the same compound?
A: 30.53 and 30.32 and 29.72

Q: What about the PQS ([6]; Compound 7.81e-7 M) of the same compound?
A: -1.07 and -0.58 and 0.13
